Laboratory results from patent US20220380309A1, “CHOLINE METABOLISM INHIBITORS” (President and Fellows of Harvard College, priority 2018, published 2022).

Each compound was assayed on E. coli MS 200-1 (assay: Inhibition of TMA production in whole cells (LC-MS/MS assay for choline TMA-lyase activity, d9-TMA from d9-choline)). Conditions: Escherichia coli, MS2001, 3.5 h.
Assay type: cell-based

| SMILES | EC50 |
| --- | --- |
| CC1CCCC1N1CC=CC(O)C1 (stereo not drawn) [Compound 5] | 15 µM |
| CN1CCCC(O)CC1 (stereo not drawn) [Compound 24] | 760 µM |

Same assay, conditions: Escherichia coli, MS2001, 3.5 h, read-out: EC50 against E. coli MS200-1

| SMILES | EC50 |
| --- | --- |
| O[C@H]1C=CCCC1 | 482 µM |
| O[C@@H]1C=CCCC1 | 404 µM |
| OC1C=CCN(CCCl)C1 (stereo not drawn) | 113 µM |
| OC1C=CCCC1 (stereo not drawn) [drawing 162] | 259 µM |
| CC1CCCC1N1CC=C[C@@H](O)C1 (stereo partly drawn) [drawing 145] | 164 µM |
| OC1C=CCN(C2CCCC2Cl)C1 (stereo not drawn) | 52 µM |
| CC1CCCC1N1CC=C[C@H](O)C1 (stereo partly drawn) [drawing 144] | 9 µM |
| CC1CCCC1N1CC=CC(O)C1 (stereo not drawn) [drawing 143] | 15 µM |
| CN1CCCC(O)CC1 (stereo not drawn) [drawing 109] | 762 µM |

Same assay, conditions: Escherichia coli, MS2001; Table 2; inhibition of TMA-d9 production, 1 mM choline-d9, anaerobic, 3.5 hrs, 37° C.; read-out: EC50

| SMILES | EC50 |
| --- | --- |
| OC1C=CCN(C2CCCCCC2)C1 (stereo not drawn) [Compound 4] | 24 µM |
| CN1CCC[C@H]1CO [Compound 20] | 280 µM |
| CC1CCCCC1N1CC=CC(O)C1 (stereo not drawn) [Compound 6] | 2 µM |
| C[N+]1(C)CC=CC(O)C1 (stereo not drawn) [Compound 25] | 10 µM |
| OC1C=CCN(C2CCCCC2)C1 (stereo not drawn) [Compound 3] | 20 µM |
| OC1C=CCOC1 (stereo not drawn) [Compound 22] | 25 µM |
| OC1C=CCN(C2CCCC2)C1 (stereo not drawn) [Compound 2] | 54 µM |
| CN1CCC[C@@H]1CO [Compound 21] | 2040 µM |
| CC1CCCCC1N1CC=C[C@H](O)C1 (stereo partly drawn) [Compound 10] | 1.2 µM |
| CN1CCCCC1CN (stereo not drawn) [Compound 17] | 120 µM |
| O[C@@H]1C=CCN(C2CCCCC2)C1 [Compound 7] | 108 µM |
| CN1CCC(O)C1 (stereo not drawn) [Compound 14] | 6300 µM |
| OC1C=CCN(C2CCC2)C1 (stereo not drawn) [Compound 1] | 154 µM |
| CC1CCCCC1N1CC=C[C@@H](O)C1 (stereo partly drawn) [Compound 9] | 68 µM |
| CN1CCC(O)CC1 [Compound 15] | 4400 µM |
| CN1CCCC1CO (stereo not drawn) [Compound 19] | 250 µM |
| O[C@H]1C=CCN(C2CCCCC2)C1 [Compound 8] | 14 µM |

Same assay, conditions: Escherichia coli, MS2001; Table 3; TMA generation of E. coli MS200-1; 100 μM compound

| SMILES | inhibition at 100 µM |
| --- | --- |
| COC1CCCCC1N1CC=CC(O)C1 (stereo not drawn) | 40% |

Same assay, conditions: Escherichia coli, MS2001; Table 3; TMA generation of E. coli MS200-1; 1 mM compound

| SMILES | inhibition at 1000 µM |
| --- | --- |
| COC(=O)C1CCCC1N1CC=CC(O)C1 (stereo not drawn) | 62% |

Same assay, conditions: Escherichia coli, MS2001; Table 3; TMA generation of E. coli MS200-1; 3 mM compound

| SMILES | inhibition at 3000 µM |
| --- | --- |
| CC(C)N1CC=CC(O)C1 (stereo not drawn) [drawing 136] | 83% |
| OC1C=CCN(Cc2ccccn2)C1 (stereo not drawn) | 96% |

Same assay, conditions: Escherichia coli, MS2001; Table 3; TMA generation, 1 mM choline-d9, anaerobic, 3.5 h, 37° C.; read-out: EC50 against E. coli MS200-1

| SMILES | EC50 |
| --- | --- |
| OC1C=CCN(C2CCCCC2F)C1 (stereo not drawn) | 12 µM |
| O[C@H]1C=CCOC1 | 112 µM |
| OC1C=CCN(CC2CC2)C1 (stereo not drawn) [drawing 120] | 252 µM |
| O[C@H]1C=CCN(C2CCC2)C1 | 116 µM |
| OC1C=CCN(Cc2ccco2)C1 (stereo not drawn) | 197 µM |
| O[C@@H]1C=CCN(C2CCCCC2)C1 [drawing 152] | 108 µM |
| CC1CCCCC1N1CC=C[C@@H](O)C1 (stereo partly drawn) [drawing 155] | 68 µM |
| CC1=CC(O)CN(C)C1 (stereo not drawn) [drawing 117] | 923 µM |
| O[C@@H]1C=CCOC1 | 84 µM |
| OC1C=CCN(Cc2ccsc2)C1 (stereo not drawn) | 260 µM |
| OC1C=CCN(CCc2ccccc2)C1 (stereo not drawn) | 294 µM |
| OC1C=CCN(C2CCCCC2)C1 (stereo not drawn) [drawing 150] | 22 µM |
| CC1CCCCC1N1CC=C[C@H](O)C1 (stereo partly drawn) [drawing 154] | 12 µM |
| O[C@H]1C=CCN(C2CCCCC2)C1 [drawing 151] | 14 µM |
| CN1CCC(O)C1 (stereo not drawn) [drawing 102] | 6300 µM |
| OC1C=CCN(Cc2ccoc2)C1 (stereo not drawn) | 256 µM |
| OC1C=CCN(C2CCSC2)C1 (stereo not drawn) | 173 µM |
| C[N+]1(C)CC=CC(O)C1 (stereo not drawn) [drawing 114] | 8 µM |
| O[C@@H]1C=CCN(C2CCC2)C1 | 193 µM |
| OC1C=CCOC1 (stereo not drawn) [drawing 167] | 80 µM |
| COc1ccc(CN2CC=C[C@@H](O)C2)cc1 | 141 µM |
| C=CC(O)CN(C)C (stereo not drawn) [drawing 174] | 70 µM |
| OC1C=CCN(Cc2cccs2)C1 (stereo not drawn) | 225 µM |
| COc1ccc(CN2CC=CC(O)C2)cc1 (stereo not drawn) | 304 µM |
| CC1CCC(N2CC=CC(O)C2)C1 (stereo not drawn) | 49 µM |
| CC(=O)OC1C=CCN(C)C1 (stereo not drawn) | 1790 µM |
| CC1=CC(O)CCC1 (stereo not drawn) | 14100 µM |

| SMILES | EC50 |
| --- | --- |
| CN1CCC[C@H]1CO [drawing 171] | 185 µM |
| O[C@@H]1C=CCN(Cc2cccs2)C1 | 213 µM |
| CC1=CCCCC1O (stereo not drawn) | 3800 µM |
| OC1C=CCN(C2CCCCCC2)C1 (stereo not drawn) [drawing 160] | 24 µM |
| CN1CCC(O)CC1 [drawing 108] | 4470 µM |
| OC1C=CCN(C2CCCC2)C1 (stereo not drawn) [drawing 140] | 42 µM |
| O[C@H]1C=CCN(C2CCCC2)C1 | 41 µM |
| O[C@H]1C=CCN(Cc2cccs2)C1 | 191 µM |
| O[C@H]1C=CCN(CC2CC2)C1 | 319 µM |
| CN1CCC(=O)C1 | > 30000 µM |
| COc1ccc(CN2CC=C[C@H](O)C2)cc1 | 383 µM |
| C[N+]1(C)CC=C[C@H](O)C1 | 9 µM |
| CCCN1CC=CC(O)C1 (stereo not drawn) [drawing 118] | 196 µM |
| O[C@@H]1C=CCN(CC2CC2)C1 | 151 µM |
| C[N+]1(C)CCCC(O)C1 (stereo not drawn) | > 30000 µM |
| C[N+]1(C)CC[C@@H](O)C1 | 2100 µM |
| CC1CCCC(N2CC=CC(O)C2)C1 (stereo not drawn) | 17 µM |
| CC1CCC(N2CC=CC(O)C2)CC1 (stereo not drawn) | 42 µM |
| OC1C=CCN(CC2CCCCC2)C1 (stereo not drawn) [drawing 123] | 91 µM |
| OC1C=CCN(Cc2ccccc2)C1 (stereo not drawn) [drawing 124] | 367 µM |
| OC1C=CCN(C2CCC2)C1 (stereo not drawn) [drawing 137] | 192 µM |
| O[C@@H]1C=CCN(C2CCCC2)C1 | 62 µM |
| C[N+]1(C)CC=C[C@@H](O)C1 | 22 µM |
| CN1CCCC1CO (stereo not drawn) [drawing 170] | 298 µM |
| CN1CCCCC1CO (stereo not drawn) | 120 µM |
| CC1CCCCC1N1CC=CC(O)C1 (stereo not drawn) [drawing 153] | 2 µM |
| CN1CCC[C@@H]1CO [drawing 172] | 1820 µM |

Same assay, conditions: Table 2; inhibition of TMA-d9 production, 1 mM choline-d9, anaerobic, 3.5 hrs, 37° C.; read-out: EC50

| SMILES | EC50 |
| --- | --- |
| CN1CCCC(=O)C1 [Compound 16] | 9500 µM |
| CN1CC=C[C@@H](O)C1 [Compound 13] | 15 µM |
| CN1CC=CC(O)C1 (stereo not drawn) [Compound 11] | 10 µM |
| CN1CC=C[C@H](O)C1 [Compound 12] | 10 µM |

Same assay, conditions: Table 3; TMA generation, 1 mM choline-d9, anaerobic, 3.5 h, 37° C.; read-out: EC50 against E. coli MS200-1

| SMILES | EC50 |
| --- | --- |
| CN1CC=C[C@@H](O)C1 [drawing 113] | 31 µM |
| CN1CC=CC(O)C1 (stereo not drawn) [drawing 110] | 10 µM |
| CN1CCCC(=O)C1 [drawing 107] | 27000 µM |
| CN1CC=C[C@H](O)C1 [drawing 112] | 10 µM |
| [2H]C1(O)C=CCN(C)C1 (stereo not drawn) | 30 µM |

These compounds were tested against CutC (Oleidesulfovibrio alaskensis, UniProt Q30W70) (assay: biochemical). Conditions: not given.
Assay type: biochemical

Chain of CutC (Q30W70 whole entry): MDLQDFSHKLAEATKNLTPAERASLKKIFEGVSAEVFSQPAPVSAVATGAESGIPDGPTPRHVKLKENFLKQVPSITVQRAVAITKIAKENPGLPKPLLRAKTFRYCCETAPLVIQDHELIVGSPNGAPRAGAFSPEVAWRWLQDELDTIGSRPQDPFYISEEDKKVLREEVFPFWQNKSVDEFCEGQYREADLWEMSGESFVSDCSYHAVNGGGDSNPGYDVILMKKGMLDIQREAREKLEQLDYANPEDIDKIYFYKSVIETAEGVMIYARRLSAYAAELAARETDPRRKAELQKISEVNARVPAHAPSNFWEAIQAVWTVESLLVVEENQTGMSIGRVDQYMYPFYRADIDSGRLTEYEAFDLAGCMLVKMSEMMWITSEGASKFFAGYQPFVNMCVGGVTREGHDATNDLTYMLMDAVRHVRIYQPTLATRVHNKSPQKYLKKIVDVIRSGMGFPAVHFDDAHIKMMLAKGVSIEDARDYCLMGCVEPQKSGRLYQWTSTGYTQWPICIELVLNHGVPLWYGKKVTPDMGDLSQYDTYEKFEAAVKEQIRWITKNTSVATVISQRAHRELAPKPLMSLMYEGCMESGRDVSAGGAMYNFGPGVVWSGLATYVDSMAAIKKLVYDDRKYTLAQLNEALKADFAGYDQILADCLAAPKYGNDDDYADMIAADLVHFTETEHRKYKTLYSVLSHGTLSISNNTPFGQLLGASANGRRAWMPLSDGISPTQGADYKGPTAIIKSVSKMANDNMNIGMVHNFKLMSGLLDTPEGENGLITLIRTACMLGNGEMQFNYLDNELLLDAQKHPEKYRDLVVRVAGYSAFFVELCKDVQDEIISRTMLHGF

| SMILES | inhibition at 10 μM | IC50 |
| --- | --- | --- |
| CC1CCCC1N1CC=CC(O)C1 (stereo not drawn) [drawing 193] | No inhibition at 10 μM |  |
| CC1CCCC1N1CC=C[C@@H](O)C1 (stereo partly drawn) [drawing 195] | No inhibition at 10 μM |  |
| OC1C=CCN(C2CCCCC2)C1 (stereo not drawn) [drawing 196] |  | 63 µM |
| OC1C=CCN(C2CCC2)C1 (stereo not drawn) [drawing 192] |  | 203 µM |
| OC1C=CCN(CC2CC2)C1 (stereo not drawn) [drawing 188] |  | 76 µM |
| OC1C=CCN(CC2CCCCC2)C1 (stereo not drawn) [drawing 189] |  | 24 µM |
| CN1CCCC1CO (stereo not drawn) [drawing 200] |  | 513 µM |
| CC1CCCC1N1CC=C[C@H](O)C1 (stereo partly drawn) [drawing 194] | No inhibition at 10 μM |  |
| CC(C)N1CC=CC(O)C1 (stereo not drawn) [drawing 191] |  | 110 µM |
| OC1C=CCN(C2CCCCCC2)C1 (stereo not drawn) [drawing 197] |  | 14 µM |
| C=CC(O)CN(C)C (stereo not drawn) [drawing 201] |  | 23 µM |

Same assay, conditions: read-out: IC50 CutC

| SMILES | IC50 |
| --- | --- |
| CCCN1CC=CC(O)C1 (stereo not drawn) [drawing 187] | 141 µM |
| CN1CCC(O)C1 (stereo not drawn) [drawing 176] | 844 µM |
| CN1CCCC(O)CC1 (stereo not drawn) [drawing 180] | 2600 µM |
| CC1=CC(O)CN(C)C1 (stereo not drawn) [drawing 186] | 422 µM |
| C[N+]1(C)CC=CC(O)C1 (stereo not drawn) [drawing 185] | 7 µM |
| OC1C=CCCC1 (stereo not drawn) [drawing 198] | 709 µM |
| OC1C=CCN(Cc2ccccc2)C1 (stereo not drawn) [drawing 190] | 100 µM |
| CN1CCC(O)CC1 [drawing 179] | 7010 µM |
| OC1C=CCOC1 (stereo not drawn) [drawing 199] | 2890 µM |

Each compound was assayed on E. coli MS69-1 (assay: Choline TMA-lyase activity (TMA generation) in cut gene cluster-harboring bacteria). Conditions: 1 mM choline-d9, 3.5 hours, 37° C., read-out: EC50 against E. coli MS69-1.
Assay type: cell-based, Escherichia coli

| SMILES | EC50 |
| --- | --- |
| CN1CC=C[C@H](O)C1 [drawing 204] | 22 µM |
| CN1CC=CC(O)C1 (stereo not drawn) [drawing 203] | 27 µM |
| CN1CC=C[C@@H](O)C1 [drawing 205] | 64 µM |

What follows are compounds tested on P. mirabilis ATCC 29906 in the same assay as above. Conditions: 1 mM choline-d9, 3.5 hours, 37° C., read-out: EC50 against P. mirabilis ATCC 29906.
Assay type: cell-based, Proteus mirabilis

| SMILES | EC50 |
| --- | --- |
| CN1CC=C[C@H](O)C1 [drawing 204] | 92 µM |
| CN1CC=CC(O)C1 (stereo not drawn) [drawing 203] | 97 µM |
| CN1CC=C[C@@H](O)C1 [drawing 205] | 366 µM |

The compounds below were run on Klebsiella sp. MS92-3 in the same assay as above. Conditions: 1 mM choline-d9, 3.5 hours, 37° C., read-out: EC50 against Klebsiella sp. MS92-3.
Assay type: cell-based

| SMILES | EC50 |
| --- | --- |
| CN1CC=C[C@H](O)C1 [drawing 204] | 4 µM |
| CN1CC=CC(O)C1 (stereo not drawn) [drawing 203] | 5 µM |
| CN1CC=C[C@@H](O)C1 [drawing 205] | 17 µM |

The compounds below were run on fecal sample (assay: Choline TMA-lyase activity in a fecal suspension ex vivo). Conditions: TMA generation, fecal sample 1:10 in Mega media, 1 mM choline-d9, 18 h, 37° C.; read-out: EC50 against fecal sample.
Assay type: cell-based

| SMILES | EC50 |
| --- | --- |
| CN1CC=C[C@H](O)C1 [drawing 204] | 60 µM |
| CN1CC=CC(O)C1 (stereo not drawn) [drawing 203] | 78 µM |
